One data set concerns peanuts. Put plainly: Crop tolerance (selective herbicidal activity), peanuts. It is filed as in vivo. As to the method: (§1) The following test procedure is employed.
(§2) Following the general test procedure of Example 37, diphenyl ethers are evaluated for significant tolerance (as shown by 50% or less kill of the test crop at levels of application which give more than 50% kill of many or all of the weeds of Example 73) towards some or all of the following common agronomic crops (not all compounds tested against all crops): alfalfa, snapbeans, corn, cotton, cucumbers, peanuts, rape, rice, safflower, soybeans, tomatoes, and wheat.

Data set [1] is described as follows: Postemergence herbicidal activity (% control) against monocot weeds. It is filed as in vivo. As to conditions: post-emergence, 336 h, average, about two weeks after application, read-out: Herbicidal activity (% control), postemergence, monocots; for activity at 2241.7 g/ha: 2 lb./A.; for activity at 4483.4 g/ha: 4 lb./A.
From the text: (§3) barnyardgrass (Echinochloa crusgalli) crabgrass (Digitaria spp.) nutsedge (Cyperus esculentus)
(§4) At 2 and 4 pounds per acre:
(§5) **Bermudagrass (Cynodon dactylon)
(§6) *downy brome (Bromus tectorum) foxtail (Setaria faberii)
(§7) Johnsongrass (Sorghum halepense) […]
(§8) quackgrass (Agropyron repens)
(§9) *ryegrass (Lolium perenne)
(§10) *wild oats (Avena factua)
(§11) *yellow millet (Panicum miliaceum)
as §1

A short description of data set [2]: Preemergence herbicidal activity (% control) against dicot weeds. As to conditions: pre-emergence, 336 h; for activity at 2241.7 g/ha: read-out: Herbicidal activity (% control), preemergence, dicots, 2 lb./A., average, about two weeks after application; for activity at 4483.4 g/ha: read-out: Herbicidal activity (% control), preemergence, dicots, 4 lb./A., average, about two weeks after application.

For a further data set, the system named is soybeans. Put plainly: Crop tolerance (selective herbicidal activity), soybeans. The class given is in vivo. The method, then: as §1, §2
A further data set concerns rice. Description: Crop tolerance (selective herbicidal activity), rice. It is filed as in vivo. The method, then: as §1, §2
Another data set deals with corn. Put plainly: Crop tolerance (selective herbicidal activity), corn. It is filed as in vivo. The method, then:
as §1, §2

A short description of data set [3]: Postemergence herbicidal activity (% control) against dicot weeds. As to conditions: post-emergence, 336 h; for activity at 2241.7 g/ha: read-out: Herbicidal activity (% control), postemergence, dicots, 2 lb./A., average, about two weeks after application; for activity at 4483.4 g/ha: read-out: Herbicidal activity (% control), postemergence, dicots, 4 lb./A., average, about two weeks after application.

Data set [4] in a line: Preemergence herbicidal activity (% control) against monocot weeds. The class given is in vivo. The note with it: pre-emergence, 336 h, average, about two weeks after application, read-out: Herbicidal activity (% control), preemergence, monocots; for activity at 2241.7 g/ha: 2 lb./A.; for activity at 4483.4 g/ha: 4 lb./A.
From the text: as §3, §4, §5, §6, §7, §8, §9, §10, §11, §1

The subject of the next data set is wheat. Description: Crop tolerance (selective herbicidal activity), wheat. The class given is in vivo. The method, then: as §1, §2
The mark [5] stands for this setting: postemergence applications or applications on transplanted rice.

For `CCN(CC)c1cc(Oc2ccc(C(F)(F)F)cc2Cl)ccc1[N+](=O)[O-]` [Example 21, 2-Chloro-α,α,α-trifluoro-p-tolyl-3-diethylamino-4-nitrophenyl ether], the Tolerance to peanuts result with peanuts (preemergence applications) is listed as “Tolerance (significant tolerance (as shown by 50% or less kill of the test crop at levels of application which give more than 50% kill of many or all of the weeds of Example 73))”. Also, the activity at 2241.7 g/ha is 90% in data set [1], 90% in data set [2], 94% in data set [3] and 79% in data set [4]. In addition, the activity at 4483.4 g/ha was found to be 74% in data set [1], 99% in data set [2], 96% in [3] and 91% in data set [4]. Besides, the Tolerance to soybeans result in the data set on soybeans (preemergence applications) is “Tolerance (significant tolerance (as shown by 50% or less kill of the test crop at levels of application which give more than 50% kill of many or all of the weeds of Example 73))”. Besides, the Tolerance to rice entry in the data set with rice (preemergence applications) is recorded as “Tolerance (significant tolerance (as shown by 50% or less kill of the test crop at levels of application which give more than 50% kill of many or all of the weeds of Example 73))”. The Tolerance to corn result in the data set with corn (postemergence applications) and in the data set with corn (preemergence applications) was “Tolerance (significant tolerance (as shown by 50% or less kill of the test crop at levels of application which give more than 50% kill of many or all of the weeds of Example 73))” throughout. For the same compound, the Tolerance to wheat result with wheat (postemergence applications) is “Tolerance (significant tolerance (as shown by 50% or less kill of the test crop at levels of application which give more than 50% kill of many or all of the weeds of Example 73))”.
`CCC(=O)Nc1cc(Oc2ccc(C(F)(F)F)cc2Cl)ccc1[N+](=O)[O-]` [Example 34]: the Tolerance to peanuts result in the data set on peanuts (postemergence applications) and with peanuts (preemergence applications) was “Tolerance (significant tolerance (as shown by 50% or less kill of the test crop at levels of application which give more than 50% kill of many or all of the weeds of Example 73))” in each case. For the same compound, the activity at 2241.7 g/ha is 47% in data set [1], 85% in data set [2], 90% in data set [3] and 83% in [4]. Moreover, the activity at 4483.4 g/ha in [1] worked out at 32%; in data set [2], 52%; in data set [3], 89%; in data set [4], 35%. Also, the Tolerance to soybeans result with soybeans (postemergence or layby applications) and with soybeans (preemergence applications) was “Tolerance (significant tolerance (as shown by 50% or less kill of the test crop at levels of application which give more than 50% kill of many or all of the weeds of Example 73))” each time. Further, the Tolerance to rice result with rice (setting [5]) and in the data set with rice (preemergence applications) was “Tolerance (significant tolerance (as shown by 50% or less kill of the test crop at levels of application which give more than 50% kill of many or all of the weeds of Example 73))” each time. The Tolerance to corn result in the data set on corn (postemergence applications) and in the data set with corn (preemergence applications) was “Tolerance (significant tolerance (as shown by 50% or less kill of the test crop at levels of application which give more than 50% kill of many or all of the weeds of Example 73))” in each case. For the same compound, the Tolerance to wheat entry in the data set on wheat (postemergence applications) and with wheat (preemergence applications) was “Tolerance (significant tolerance (as shown by 50% or less kill of the test crop at levels of application which give more than 50% kill of many or all of the weeds of Example 73))” each time.
Take `CSCCOc1cc(Oc2ccc(C(F)(F)F)cc2Cl)ccc1[N+](=O)[O-]` [Example 40]: the Tolerance to peanuts result in the data set on peanuts (postemergence applications) and in the data set on peanuts (preemergence applications) was “Tolerance (significant tolerance (as shown by 50% or less kill of the test crop at levels of application which give more than 50% kill of many or all of the weeds of Example 73))” throughout. The activity at 2241.7 g/ha came to 81% in data set [1], 98% in data set [2], 100% in [3] and 88% in [4]. For the same compound, the activity at 4483.4 g/ha in data set [1] was determined as 64%; in data set [2], 92%; in data set [3], 100%; in data set [4], 86%. In addition, in the data set on soybeans (preemergence applications), the Tolerance to soybeans result is on record as “Tolerance (significant tolerance (as shown by 50% or less kill of the test crop at levels of application which give more than 50% kill of many or all of the weeds of Example 73))”. The Tolerance to rice result in the data set on rice (setting [5]) and in the data set with rice (preemergence applications) was “Tolerance (significant tolerance (as shown by 50% or less kill of the test crop at levels of application which give more than 50% kill of many or all of the weeds of Example 73))” each time. The Tolerance to corn result with corn (postemergence applications) and in the data set on corn (preemergence applications) was “Tolerance (significant tolerance (as shown by 50% or less kill of the test crop at levels of application which give more than 50% kill of many or all of the weeds of Example 73))” each time. Further, the Tolerance to wheat result in the data set on wheat (preemergence applications) is on record as “Tolerance (significant tolerance (as shown by 50% or less kill of the test crop at levels of application which give more than 50% kill of many or all of the weeds of Example 73))”.
Consider `CCN(CCO)c1cc(Oc2ccc(C(F)(F)F)cc2Cl)ccc1[N+](=O)[O-]` [Example 54], for which, in the data set with peanuts (postemergence applications), the Tolerance to peanuts entry was “Tolerance (significant tolerance (as shown by 50% or less kill of the test crop at levels of application which give more than 50% kill of many or all of the weeds of Example 73))”. For the same compound, the activity at 2241.7 g/ha in data set [1] was determined as 71%; in data set [3] it was 100%; in data set [4], 98%. Moreover, the activity at 4483.4 g/ha amounted to 79% in data set [1], 75% in data set [2], 100% in data set [3] and 83% in data set [4]. Further, the Tolerance to soybeans result in the data set with soybeans (preemergence applications) is listed as “Tolerance (significant tolerance (as shown by 50% or less kill of the test crop at levels of application which give more than 50% kill of many or all of the weeds of Example 73))”. Also, the Tolerance to rice result in the data set with rice (setting [5]) and with rice (preemergence applications) was “Tolerance (significant tolerance (as shown by 50% or less kill of the test crop at levels of application which give more than 50% kill of many or all of the weeds of Example 73))” each time. The Tolerance to corn result in the data set on corn (postemergence applications) and with corn (preemergence applications) was “Tolerance (significant tolerance (as shown by 50% or less kill of the test crop at levels of application which give more than 50% kill of many or all of the weeds of Example 73))” in each case. Also, the Tolerance to wheat entry in the data set with wheat (postemergence applications) and in the data set with wheat (preemergence applications) was “Tolerance (significant tolerance (as shown by 50% or less kill of the test crop at levels of application which give more than 50% kill of many or all of the weeds of Example 73))” throughout.

(Values after patent US4419123A, “Herbicidal 4-trifluoromethyl-3'-carbon-substituted-4'-substituted diphenyl ethers” (Rohm and Haas Company, priority 1981, dated 1983).)
